From US20060134630A1, “Method for screening for an antimicrobial polypeptide” (Novozymes A/S, priority 2002, published 2006)

What was measured:
Fusarium longypes [1] = assay: Growth inhibition of Fusarium longypes by AFP diffused into solid media (filter removed); type: cell-based; design: key: +: whether or not a clearing zone is present in the top-layer; −: whether or not a clearing zone is present in the top-layer; conditions: Fusarium longypes top-layer, acetate filter removed, 0.1% arabinose, 3 days room temperature
Excerpt: The method used in this example is similar to the method described in example 14 with the difference that in this example the acetate filter containing the E.coli origami cells is removed from the arabinose plate before it is overlaid with the fungus Fusarium longypes which is used as an indicator strain.
Additionally, this example is very similar to example 4, with the exception that in the present example AFP is the antimicrobial polypeptide (instead of Plectasin in example 4) and Fusarium longypes is the indicator cells (instead of Bacillus subtilis in example 4). As described in example 14, E. coli origami cells were transformed with pHHA900-AFP and pHHA, respectively and cultured overnight at 37 degrees C on LB-agar plates containing tetracycline (tet), kanamycin (kan) and ampicillin (amp) to select for viable E.coli origami cells comprising said constructs. Two viable E.coli origami colonies containing each of the constructs were selected and used to inoculate a LB-agar plate with tet, kan and amp before culturing said plate for 3 days at 37 degrees C. A cellulose acetate filter was placed on top of the plate and the colonies were striped off with the filter. The filter was then placed on a new LB-agar plate containing 0.1% arabinose with the colonies facing up to induce expression of the AFP. The filter-agar, 0.1% arabinose plate was incubated overnight at 37 degrees C. […]

Fusarium longypes [2] = assay: Growth inhibition of Fusarium longypes by AFP (filter-agar plate treated with chloroform); type: cell-based; design: key: +: whether or not a clearing zone is present in the top-layer; −: whether or not a clearing zone is present in the top-layer; conditions: Fusarium longypes top-layer over origami colonies, 0.1% arabinose, 3 days room temperature
Excerpt: E. coli origami cells were transformed with pHHA900-AFP and pHHA, respectively and cultured overnight at 37 degrees C. on LB-agar plates containing tetracycline (tet), kanamycin (kan) and ampicillin (amp) to select for viable origami cells comprising said constructs. Two viable origami colonies containing each of the constructs were selected and used to inoculate 3 other LB-agar plates with tet, kan and amp before culturing said plates for 3 days at 37 degrees C. A cellulose acetate filter (Schleider & Schull) was placed on top of each of the plates and the colonies were striped off with the filters. The filters were then place on new LB-agar plates containing 0.1% arabinose with the colonies facing up to induce expression of the AFP. The filter-agar, 0.1% arabinose plates were incubated overnight at 37 degrees C. before treating them with chloroform as described in example 1. After this a top-layer of 6 ml agar comprising approximately […] Fusarium longypes were poured on top of the chloroform treated filter-agar plate. The plates with top-layer were then incubated for 3 days at room temperature. The pink color of the Fusarium longypes mycelium facilitated the detection of the clearing zones in the top layer. […]

pHHA900-AFP: antifungal protein derived from Aspergillus giganteus, expressed in the cytoplasm (ATYNGKCYKKDNICKYKAQSGKTAICKCYVKKCPRDGAKCEFDSYKGKCYC; UniProt P17737 44-94, looked up)
Clearing zone +/− (Fusarium longypes [1]): + | Clearing zone +/−, Plate treated with chloroform (Fusarium longypes [2]): +
